Here are results for 19 molecules from US9271960B2, “Tetrahydrocarbazoles as active agents for inhibiting VEGF production by translational control” (PTC Therapeutics, Inc., priority 2004, dated 2016).

Where a name gives a salt, the structure may show the parent alone.

The first experiment concerns VEGF. As to the kind of experiment: Hypoxia-inducible endogenous VEGF expression ELISA in HeLa cells. Particulars: Homo sapiens, HeLa, compounds 1-155, hypoxic conditions (1% O2), VEGF protein by ELISA, read-out: ELISA Activity. Type of experiment: cell-based. As to the method: The ability of compounds of the invention to modulate hypoxia-inducible endogenous VEGF expression is analyzed as follows. VEGF protein levels are monitored by an ELISA assay (R&D Systems). Briefly, HeLa cells are cultured for 24-48 hours under hypoxic conditions (1% O2, 5% CO2, balanced with nitrogen) in the presence or absence of a compound of the invention. The conditioned media is then assayed by ELISA, and the concentration of VEGF is calculated from the standard ELISA curve of each assay.
A dose-response analysis is performed using the ELISA assay and conditions described above. A series of different concentrations (e.g., seven) are analyzed. In parallel, a dose-response cytotoxicity assay is performed using Cell Titer Glo (Promega) under the same conditions as the ELISA to ensure that the inhibition of VEGF expression is not due to cytotoxicity. Dose-response curves are plotted using percentage inhibition versus concentration of the compound, and EC50 and CC50 values are generated for each compound with the maximal inhibition set as 100% and the minimal inhibition as 0%.
Compounds 156-188 in Table 1 are commercially available. In Table 1, each of the represented compounds is followed by one to five stars.
A general note: ELISA stands for enzyme-linked immunosorbent assay.
Turning to `CN(C)c1ccc(NC2CCCc3c2[nH]c2ccc(Br)cc32)cc1` (stereo not shown) [Compound 61, N-(6-Bromo-2,3,4,9-tetrahydro-1H-carbazol-1-yl)-N′,N′-dimethyl-benzene-1,4-diamine], the EC50 is 200 to 1000 nM.

On to `NC1CCCc2c1[nH]c1ccc(Br)cc21` (stereo not shown) [Compound 89, 6-Bromo-2,3,4,9-tetrahydro-1H-carbazol-1-ylamine], for which the EC50 was greater than 1000 nM.

With `Brc1ccc2[nH]c3c(c2c1)CCCC3c1nc2ccccc2[nH]1` (stereo not shown) [Compound 142, 1-(1H-Benzoimidazol-2-yl)-6-bromo-2,3,4,9-tetrahydro-1H-carbazole], the EC50 lay within 10 to 40 nM.

For the molecule `Cc1nnc(C2CCCc3c2[nH]c2ccc(Br)cc32)o1` (stereo not shown) [Compound 100, 6-Bromo-1-(5-methyl-[1,3,4]oxadiazol-2-yl)-2,3,4,9-tetrahydro-1H-carbazole], the EC50 is greater than 1000 nM.

For `O=C(NC1CCCc2c1[nH]c1ccc(Cl)cc21)c1cccs1` (stereo not shown) [Compound 143, Thiophene-2-carboxylic acid (6-chloro-2,3,4,9-tetrahydro-1H-carbazol-1-yl)-amide], the EC50 lay within 40 to 200 nM.

With `FC(F)(F)c1ccc(NC2CCCc3c2[nH]c2ccc(Cl)cc32)cc1` (stereo not shown) [Compound 137, (6-Chloro-2,3,4,9-tetrahydro-1H-carbazol-1-yl)-(4-trifluoromethyl-phenyl)-amine], the EC50 is less than 10 nM.

For the molecule `COc1ccc2[nH]c3c(c2c1)CCCC3N` (stereo not shown) [Compound 95, 6-Methoxy-2,3,9-tetrahydro-1H-carbazol-1-ylamine], the EC50 was greater than 1000 nM.

Regarding `OC1CCCc2c1oc1ccc(Br)cc21` (stereo not shown) [Compound 108, 8-Bromo-1,2,3,4-tetrahydro-dibenzofuran-4-ol], the EC50 was greater than 1000 nM.

Turning to `CC(C)(C)OC(=O)n1c2c(c3cc(Br)ccc31)CCCC2=O` [Compound 80, 6-Bromo-1-oxo-1,2,3,4-tetrahydro-carbazole-9-carboxylic acid tert-butyl ester], the EC50 is greater than 1000 nM.

On to `Cn1cccc1C(=O)NC1CCCc2c1[nH]c1ccc(Br)cc21` (stereo not shown) [Compound 155, 1-Methyl-1H-pyrrole-2-carboxylic acid (6-bromo-2,3,4,9-tetrahydro-1H-carbazol-1-yl)-amide], for which the EC50 lay in the range of 10 to 40 nM.

For `Brc1ccc2[nH]c3c(c2c1)CCCC3NCCCn1ccnc1` (stereo not shown) [Compound 114, (6-Bromo-2,3,4,9-tetrahydro-1H-carbazol-1-yl)-(3-imidazol-1-yl-propyl)-amine], the EC50 is greater than 1000 nM.

Turning to `Brc1ccc2[nH]c3c(c2c1)CCCC3N1CCCC1` (stereo not shown) [Compound 116, 6-Bromo-1-pyrrolidin-1-yl-2,3,4,9-tetrahydro-1H-carbazole], the EC50 was greater than 1000 nM.

In the case of `O=C1c2ccccc2CN1C1CCCc2c1[nH]c1ccc(Br)cc21` (stereo not shown) [Compound 25, 2-(6-Bromo-2,3,4,9-tetrahydro-1H-carbazol-1-yl)-2,3-dihydro-isoindol-1-one], the EC50 lay in the range of 10 to 40 nM.

Staying with this experiment, now noted: Homo sapiens, HeLa, compounds 191-239, hypoxic conditions, VEGF protein by ELISA, read-out: ELISA Activity EC50.
With `COCCN(CCOC)CC(O)COc1ccc(C2CCCc3c2[nH]c2ccc(Br)cc32)cc1` (stereo not shown) [Compound 198], the EC50 is less than 10 nM.

`OC(COc1ccc(C2CCCCc3c2[nH]c2ccc(Cl)cc32)cc1)Cn1ccnn1` (stereo not shown) [Compound 232]: the EC50 fell in the range of 10 to 40 nM.

For the molecule `CN1CCN(CCCOc2ccc(C3CCCc4c3[nH]c3ccc(Br)cc43)cc2)CC1` (stereo not shown) [Compound 208], the EC50 fell in the range of 40 to 200 nM.

The experiment is the same for the next values; noted with them: Homo sapiens, HeLa, purchased compounds 156-188, hypoxic conditions, VEGF protein by ELISA, read-out: ELISA Activity.
For the molecule `CC(C)COc1ccc2c(c1)c1c3n2CCNC3CCC1` (stereo not shown) [Compound 167, 8-Isobutoxy-2,3,3a,4,5,6-hexahydro-1H-pyrazino[3,2,1-jk]carbazole], the EC50 was greater than 1000 nM.

Still in this experiment, the particulars now being: Homo sapiens, HeLa, purchased compounds 156-188, hypoxic conditions, VEGF protein by ELISA, read-out: ELISA EC50.
For the molecule `CC(C)COc1ccc2c(c1)c1c3n2CCNC3CCC1` (stereo not shown) [Compound 167, 8-Isobutoxy-2,3,3a,4,5,6-hexahydro-1H-pyrazino[3,2,1-jk]carbazole], the EC50 worked out at 6930 nM.

Staying with this experiment, now noted: purchased compounds 156-188, hypoxic conditions, VEGF protein by ELISA, hydrochloride, read-out: ELISA EC50.
With `OCCNC1CCCc2c1[nH]c1ccc(Br)cc21` (stereo not shown) [Compound 186, 2-(6-Bromo-2,3,4,9-tetrahydro-1H-carbazol-1-ylamino)-ethanol hydrochloride], the EC50 came to 12200 nM.

The experiment is the same for the next values; noted with them: purchased compounds 156-188, hypoxic conditions, VEGF protein by ELISA, read-out: ELISA Activity.
`OCCNC1CCCc2c1[nH]c1ccc(Br)cc21` (stereo not shown) [Compound 186, 2-(6-Bromo-2,3,4,9-tetrahydro-1H-carbazol-1-ylamino)-ethanol hydrochloride]: the EC50 was greater than 1000 nM.

In the case of “3-[(2,3,4,9-Tetrahydro- 1H-carbazol-1-ylamino)- methylene]-1,3-dihydro- indol-2-one [Compound 158]”, the EC50 lay within 200 to 1000 nM.

The same experiment, now with this note: purchased compounds 156-188, hypoxic conditions, VEGF protein by ELISA, read-out: ELISA EC50.
On to “3-[(2,3,4,9-Tetrahydro- 1H-carbazol-1-ylamino)- methylene]-1,3-dihydro- indol-2-one [Compound 158]”, for which the EC50 worked out at 267 nM.
